Values after ≈ are worked out from the molar mass of the structure shown. Where a SMILES comes first, the peptide text is derived from it.
Assays:
Assay type in all cases: functional
L1210 = assay: Cytotoxicity against mouse L1210 cells; details: read-out: ED50 (the source's name)
[1] = Growth inhibition of human NCI60 cells
P388 = assay: Cytotoxicity against mouse P388 cells; details: read-out: ED50 (the source's name)

SMILES	EC50 (L1210) [mg/L]	GI50 [1] [µM]	EC50 (P388) [mg/L]
CC(C)C[C@@H]1NC(=O)[C@@H]2CCCN2C(=O)[C@H](C(C)C)NC(=O)[C@H](Cc2c[nH]c3ccccc23)NC(=O)[C@@H]2CCCN2C(=O)[C@H](CC(C)C)NC(=O)[C@@H]2CCCN2C(=O)[C@H]([C@@H](C)O)NC1=O [HYMENAMIDE H] (cyclo(LPWVPLTP))	6.3 (≈ 6.97 µM)		
CC[C@H](C)[C@@H]1NC(=O)[C@@H]2CCCN2C(=O)[C@H]([C@@H](C)O)NC(=O)[C@H](CC(C)C)NC(=O)[C@@H]2CCCN2C(=O)[C@H](C(C)C)NC(=O)[C@H](Cc2ccc(O)cc2)NC(=O)[C@@H]2CCCN2C1=O [PHAKELLISTATIN 10] (cyclo(IPYVPLTP))		0.79	2.1 (≈ 2.38 µM)
CC(C)[C@@H]1NC(=O)[C@H](CCCCN)NC(=O)[C@H](Cc2c[nH]c3ccccc23)NC(=O)[C@H](Cc2ccccc2)NC(=O)[C@H](CC(=O)O)NC(=O)[C@H](Cc2ccc(O)cc2)NC(=O)[C@@H]2CCCN2C(=O)[C@H](Cc2ccc(O)cc2)NC1=O [HYMENAMIDE J] (cyclo(DFWKVYPY))	2.6 (≈ 2.37 µM)		
CC[C@H](C)[C@@H]1NC(=O)[C@H](Cc2ccccc2)NC(=O)[C@@H]2CCCN2C(=O)[C@H](Cc2ccccc2)NC(=O)[C@@H]2CCCN2C(=O)[C@H](CCC(N)=O)NC(=O)[C@@H]2CCCN2C(=O)[C@H](Cc2ccccc2)NC1=O [PHAKELLI STATIN 11] (cyclo(FIFPQPFP))		0.132	0.2 (≈ 0.205 µM)

From ChEMBL document CHEMBL1159266, “Antineoplastic agents, 325. Isolation and structure of the human cancer cell growth inhibitory cyclic octapeptides phakellistatin 10 and 11 from Phakellia sp” (1995)
